Paper PMC3045849 (Bioorganic & medicinal chemistry letters, 2009)
Non-standard residues stand in square brackets, D forms with d. Residues, ends and D or L forms follow the SMILES beside them. *: point of attachment. Asu = N[C@@H](CCCCCC(=O)O)C(=O)O; NH(2-NH2-phenyl) = Nc1ccccc1N*

Columns and labels:
[1] = molecular target: recombinant human HDAC1 (Homo sapiens, UniProt Q13547); assay: Inhibition of recombinant HDAC1; assay type: biochemical
[2] = molecular target: recombinant human HDAC3 (Homo sapiens, UniProt O15379); assay: Inhibition of recombinant HDAC3; assay type: biochemical
Chain of recombinant human HDAC3 (O15379 whole entry): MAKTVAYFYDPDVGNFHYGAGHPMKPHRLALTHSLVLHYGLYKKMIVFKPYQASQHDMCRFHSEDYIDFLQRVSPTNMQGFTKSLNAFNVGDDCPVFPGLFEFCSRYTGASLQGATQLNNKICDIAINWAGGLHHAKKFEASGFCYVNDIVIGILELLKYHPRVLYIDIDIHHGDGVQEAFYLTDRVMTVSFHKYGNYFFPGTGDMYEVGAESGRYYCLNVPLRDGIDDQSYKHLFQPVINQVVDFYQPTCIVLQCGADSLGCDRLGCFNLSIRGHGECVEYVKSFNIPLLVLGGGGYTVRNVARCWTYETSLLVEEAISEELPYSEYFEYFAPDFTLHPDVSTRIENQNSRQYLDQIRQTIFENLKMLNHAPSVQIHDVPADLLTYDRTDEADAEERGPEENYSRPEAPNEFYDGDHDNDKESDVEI
Chain of recombinant human HDAC3 (Q9Y618 395-489 partner limits assumed): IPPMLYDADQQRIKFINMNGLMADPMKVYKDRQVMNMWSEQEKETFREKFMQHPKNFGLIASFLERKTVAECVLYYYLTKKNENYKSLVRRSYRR

[3] = test system: human lymphoblastoid cell line (GM15850); assay: Acetylation levels of endogenous histone H3 by western blot; assay type: cell-based; details: 20 µM, 48 h incubation, GM15850 cells

Chain of recombinant human HDAC1 (Q13547 whole entry): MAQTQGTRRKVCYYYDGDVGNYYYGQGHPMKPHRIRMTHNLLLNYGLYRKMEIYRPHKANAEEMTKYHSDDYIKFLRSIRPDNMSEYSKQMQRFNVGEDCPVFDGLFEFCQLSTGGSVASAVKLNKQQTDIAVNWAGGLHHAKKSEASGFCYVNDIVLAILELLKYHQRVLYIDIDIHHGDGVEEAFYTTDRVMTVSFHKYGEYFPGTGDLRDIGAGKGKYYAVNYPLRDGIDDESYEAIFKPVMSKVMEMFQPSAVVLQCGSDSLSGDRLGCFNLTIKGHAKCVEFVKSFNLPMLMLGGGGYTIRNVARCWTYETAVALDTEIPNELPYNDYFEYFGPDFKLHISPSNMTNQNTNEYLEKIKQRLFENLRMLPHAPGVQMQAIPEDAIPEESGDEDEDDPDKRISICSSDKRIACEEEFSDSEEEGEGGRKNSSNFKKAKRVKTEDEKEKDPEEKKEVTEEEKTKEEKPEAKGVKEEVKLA

SMILES | IC50 [1] [µM] | IC50 [2] [µM] | effect on acetylation of endogenous histone H3 [3]
N=C(N)NCCC[C@H](N)C(=O)NCC(=O)N[C@@H](CCCCCC(=O)Nc1ccccc1N)C(=O)NCC(=O)O [compound 13] (H-RG[Asu](NH(2-NH2-phenyl))G-OH; N-terminus and C-terminus assumed) | 532 | 69.3 | no effect
Cc1ccc(C(=O)N[C@@H](CCCNC(=N)N)C(=O)NCCC(=O)Nc2ccccc2N)cc1 [compound 16] |  |  | no such effect
Cc1ccc(C(=O)NCC(=O)NCCC(=O)Nc2ccccc2N)cc1 [compound 15] |  |  | relatively strong effect
N=C(N)NCCC[C@H](N)C(=O)NCC(=O)N[C@@H](CCCCCC(=O)Nc1ccccc1N)C(=O)Nc1ccccc1N [compound 10] |  |  | relatively stronger effects
